Data published in article PMC3662789, “Structural Investigation of a Novel N-Acetyl Glucosamine Binding Chi-Lectin Which Reveals Evolutionary Relationship with Class III Chitinases” (PLoS ONE, 2013).

Biological target: T1, TCLL (tamarind chitinase like lectin) (Tamarindus indica, UniProt S4S1V9)
T1 construct: monomer, glycosylated at Asn146; 33440 Da (deglycosylated 31811 Da); 266 residues modelled (7-272)
Assay: isothermal titration calorimetry (single-site model)
Format: binding
Details: 20 mM Tris, pH 7.4, 25°C; 0.3 mM protein, 8 mM sugar in syringe; crystal complex at 1.6 Å with two surface sites S1 and S2

T1 sequence (S4S1V9 entry or part of it): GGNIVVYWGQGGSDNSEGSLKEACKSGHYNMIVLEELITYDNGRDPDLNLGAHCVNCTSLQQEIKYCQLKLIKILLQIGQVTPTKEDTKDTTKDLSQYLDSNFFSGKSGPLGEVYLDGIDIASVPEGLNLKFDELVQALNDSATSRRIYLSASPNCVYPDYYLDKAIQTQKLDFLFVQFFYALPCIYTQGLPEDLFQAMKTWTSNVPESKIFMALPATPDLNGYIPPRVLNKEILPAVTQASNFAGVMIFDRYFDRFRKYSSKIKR

CC(=O)N[C@H]1C(O)O[C@H](CO)[C@@H](O)[C@@H]1O (stereo partly shown) [N-acetyl glucosamine]
Ka: 2.9×10^3
